Biological target: T1, KRAS G12C 1-169, his-tagged protein, GDP-loaded (Homo sapiens, UniProt P01116, G12C)
T1 construct: KRAS G12C 1-169, his-tagged protein, GDP-loaded
Assay: Biochemical assay: covalent modification of KRAS G12C measured by mass spectrometry (RapidFire/TOF or Q-Exactive)
Settings: covalent binding to KRAS G12C
Outline: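 Covalent adduct formation read by intact-mass spectrometry (TOF or Q Exactive Plus, charge envelopes deconvoluted into modified and unmodified species) after formic acid quench. Reactions contained 2 μM GDP-bound KRAS G12C 1-169 (his-tag) in Hepes/NaCl/MgCl2 buffer plus 10, 30 or 100 μM final compound, held 30 min, 2 h or 24 h at room temperature.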

SMILES | Binding % (compounds of structure (I)) | also measured
C=CC(=O)N1CCN(c2nc(OCCNC)nc3c(F)c(-c4c(O)cccc4F)c(Cl)cc23)CC1 [Example I-86, 1-(4-(6-chloro-8-fluoro-7-(2-fluoro-6-hydroxyphenyl)-2-(2-(methyl-amino)ethoxy)quinazolin-4-yl)piperazin-1-yl)prop-2-en-1-one] | +++ (+++ indicates binding activity greater than 90%) | 
C=CC(=O)N1CCN(c2nc(N)nc3c(F)c(-c4cc(O)cc5ccccc45)c(Cl)cc23)CC1 [Example I-191, 1-(4-(2-amino-6-chloro-8-fluoro-7-(3-hydroxy-naphthalen-1-yl)quinazolin-4-yl)piperazin-1-yl) prop-2-en-1-one] | +++ (+++ indicates binding activity greater than 90%) | 
C=CC(=O)N1C[C@@H](C)N(c2ncnc3c(F)c(-c4c(O)cccc4F)c(Cl)cc23)[C@@H](C)C1 [III-28, 1-((3R,5S)-4-(6-chloro-8-fluoro-7-(2-fluoro-6-hydroxy-phenyl)quinazolin-4-yl)-3,5-dimethyl-piperazin-1-yl)prop-2-en-1-one] |  | Binding % (compounds of structure (III)): +++ (+++ indicates binding activity greater than 90%)
C=CC(=O)N1CCN(c2nc(OC3CCN(C)C3)nc3c(F)c(-c4c(O)cccc4F)c(Cl)cc23)CC1 (stereo not drawn) [Example I-22, 1-(4-(6-chloro-8-fluoro-7-(2-fluoro-6-hydroxyphenyl)-2-(1-methyl-pyrrolidin-3-yloxy)quinazolin-4-yl)piperazin-1-yl)prop-2-en-1-one] | ++ (++ indicates binding activity from 50 to 90%) | 
C=CC(=O)N1CCN(c2ncnc3c(F)c(-c4c(O)ccc(F)c4F)c(Cl)cc23)CC1 [II-3, 1-(4-(6-chloro-7-(2,3-difluoro-6-hydroxyphenyl)-8-fluoroquinazolin-4-yl)piperazin-1-yl)prop-2-en-1-one] |  | Binding % (compounds of structure (II)): +++ (+++ indicates binding activity of 75% or greater)
C=CC(=O)N1CCN(c2nc(OCCN3CCOCC3)nc3c(F)c(-c4c(O)cccc4F)c(Cl)cc23)CC1 (atropisomer, axis not shown) [Example I-28, (R)-1-(4-(6-chloro-8-fluoro-7-(2-fluoro-6-hydroxyphenyl)-2-(2-morpholino-ethoxy)quinazolin-4-yl)piperazin-1-yl)prop-2-en-1-one] | + (+ indicates binding activity up to 50%) | 
C=CC(=O)N1CCN(c2nc(OCCN3CC[C@H](OC)C3)nc3c(F)c(-c4c(O)cccc4F)c(Cl)cc23)CC1 [Example I-33, 1-(4-(6-chloro-8-fluoro-7-(2-fluoro-6-hydroxyphenyl)-2-(2-((S)-3-methoxy-pyrrolidin-1-yl)ethoxy)quinazolin-4-yl)piperazin-1-yl)prop-2-en-1-one] | +++ (+++ indicates binding activity greater than 90%) | 
C=CC(=O)N1CCN(c2nc(OCc3cccc(C)n3)nc3c(F)c(-c4c(O)cccc4F)c(Cl)cc23)CC1 [Example I-99, 1-(4-(6-chloro-8-fluoro-7-(2-fluoro-6-hydroxyphenyl)-2-((6-methyl-pyridin-2-yl)methoxy)quinazolin-4-yl)piperazin-1-yl)prop-2-en-1-one] | +++ (+++ indicates binding activity greater than 90%) | 
C=CC(=O)N1CCN(c2nc(COCc3ncccc3F)nc3c(F)c(-c4c(O)cccc4F)c(Cl)cc23)CC1 [Example I-210, 1-(4-(6-chloro-8-fluoro-7-(2-fluoro-6-hydroxyphenyl)-2-(((3-fluoro-pyridin-2-yl)methoxy)methyl)quinazolin-4-yl)piperazin-1-yl) prop-2-en-1-one] | +++ (+++ indicates binding activity greater than 90%) | 
C=CC(=O)N1CCN(c2nc(NC3CCN(C(C)C)CC3)nc3c(F)c(-c4c(C)ccc5[nH]ncc45)c(Cl)cc23)CC1 [Example I-136, 1-(4-(6-chloro-8-fluoro-2-(1-isopropyl-piperidin-4-ylamino)-7-(5-methyl-1H-indazol-4-yl)quinazolin-4-yl)piperazin-1-yl) prop-2-en-1-one] | +++ (+++ indicates binding activity greater than 90%) | 
C=C(Cl)C(=O)N1CCN(c2nc(OCCN3CCOCC3)nc3c(F)c(-c4cc(O)cc5ccccc45)c(Cl)cc23)CC1 [Example I-73, 2-chloro-1-(4-(6-chloro-8-fluoro-7-(3-hydroxy-naphthalen-1-yl)-2-(2-morpholino-ethoxy)quinazolin-4-yl)piperazin-1-yl)prop-2-en-1-one] | +++ (+++ indicates binding activity greater than 90%) | 
C=CC(=O)N1CCN(c2nc(NC3CC4CCC(C3)N4C3CC3)nc3c(F)c(-c4c(C)ccc5[nH]ncc45)c(Cl)cc23)CC1 (stereo not drawn) [Example I-188, 1-(4-(6-chloro-2-((8-cyclopropyl-8-azabicyclo[3.2.1]octan-3-yl)amino)-8-fluoro-7-(5-methyl-1H-indazol-4-yl)quinazolin-4-yl)piperazin-1-yl) prop-2-en-1-one] | ++ (++ indicates binding activity from 50 to 90%) | 
C=CC(=O)N1CCN(c2nc(C(=O)N3CCOCC3)nc3c(F)c(-c4c(O)cccc4F)c(Cl)cc23)CC1 [Example I-49, 1-(4-(6-chloro-8-fluoro-7-(2-fluoro-6-hydroxyphenyl)-2-(morpholine-4-carbonyl)quinazolin-4-yl)piperazin-1-yl) prop-2-en-1-one] | +++ (+++ indicates binding activity greater than 90%) | 
C=CC(=O)N1CCN(c2nc(OCCNP(C)(C)=O)nc3c(F)c(-c4c(O)cccc4F)c(Cl)cc23)CC1 [Example I-207, N-(2-(4-(4-acryloyl-piperazin-1-yl)-6-chloro-8-fluoro-7-(2-fluoro-6-hydroxyphenyl)quinazolin-2-yloxy)ethyl)-P,P-dimethyl-phosphinic amide] | ++ (++ indicates binding activity from 50 to 90%) | 
C=CC(=O)N1CCN(c2nc(OCCN3CCC(F)(F)C3)nc3c(F)c(-c4c(O)cccc4F)c(Cl)cc23)CC1 [Example I-30, 1-(4-(6-chloro-2-(2-(3,3-difluoro-pyrrolidin-1-yl)ethoxy)-8-fluoro-7-(2-fluoro-6-hydroxyphenyl)quinazolin-4-yl)piperazin-1-yl) prop-2-en-1-one] | +++ (+++ indicates binding activity greater than 90%) | 
C=CC(=O)N1CCN(c2ncnc3cc(-c4c(F)cccc4C(F)F)c(Cl)cc23)CC1 [II-5, 1-(4-(6-chloro-7-(2-(difluoromethyl)-6-fluorophenyl)quinazolin-4-yl)piperazin-1-yl)prop-2-en-1-one] |  | Binding % (compounds of structure (II)): + (+ indicates binding activity up to 50%)
C=CC(=O)N1CCN(c2nc(OCc3cnc(OC)nc3)nc3c(F)c(-c4c(O)cccc4F)c(Cl)cc23)CC1 [Example I-118, 1-(4-(6-chloro-8-fluoro-7-(2-fluoro-6-hydroxyphenyl)-2-((2-methoxy-pyrimidin-5-yl)methoxy)quinazolin-4-yl)piperazin-1-yl) prop-2-en-1-one] | +++ (+++ indicates binding activity greater than 90%) | 
C=CC(=O)N1CCN(c2nc(OCCN3CCC(F)(F)C3)nc3c(F)c(-c4c(O)cccc4F)c(Cl)cc23)CC1 (atropisomer, axis not shown) [Example I-98, (R)-1-(4-(6-chloro-2-(2-(3,3-difluoro-pyrrolidin-1-yl)ethoxy)-8-fluoro-7-(2-fluoro-6-hydroxyphenyl)quinazolin-4-yl)piperazin-1-yl) prop-2-en-1-one] | + (+ indicates binding activity up to 50%) | 
C=CC(=O)N1CCN(c2nc(N3CC(N4CC(F)(F)C4)C3)nc3c(F)c(-c4c(O)cccc4F)c(Cl)cc23)CC1 [Example I-179, 1-(4-(6-chloro-2-(3,3-difluoro-[1,3′-biazetidin]-1′-yl)-8-fluoro-7-(2-fluoro-6-hydroxyphenyl)quinazolin-4-yl)piperazin-1-yl) prop-2-en-1-one] | + (+ indicates binding activity up to 50%) | 
C=CC(=O)N1CCN(c2nc(OCCc3cccc(C)n3)nc3c(F)c(-c4c(O)cccc4F)c(Cl)cc23)CC1 [Example I-89, 1-(4-(6-chloro-8-fluoro-7-(2-fluoro-6-hydroxyphenyl)-2-(2-(6-methyl-pyridin-2-yl)ethoxy)quinazolin-4-yl)piperazin-1-yl)prop-2-en-1-one] | +++ (+++ indicates binding activity greater than 90%) | 
C=CC(=O)N1CCN(c2ncnc3c(F)c(-c4c(F)cccc4OCc4cnc([N+](=O)[O-])n4C)c(Cl)cc23)CC1 [II-10, 1-(4-(6-chloro-8-fluoro-7-(2-fluoro-6-((1-methyl-2-nitro-1H-imidazol-5-yl)methoxy)phenyl)quinazolin-4-yl)piperazin-1-yl)prop-2-en-1-one] |  | Binding % (compounds of structure (II)): +++ (+++ indicates binding activity of 75% or greater)
C=CC(=O)N1CCN(c2nc(NC3CCN(C4CC4)CC3)nc3c(F)c(-c4c(C)ccc5cn[nH]c45)c(Cl)cc23)CC1 [Example I-196, 1-(4-(6-chloro-2-((1-cyclo-propylpiperidin-4-yl)amino)-8-fluoro-7-(6-methyl-1H-indazol-7-yl)quinazolin-4-yl)piperazin-1-yl) prop-2-en-1-one] | ++ (++ indicates binding activity from 50 to 90%) | 
C=CC(=O)N1CCN(c2nc(NCCN(CC)CC)nc3c(F)c(-c4c(C)ccc5[nH]ncc45)c(Cl)cc23)CC1 [Example I-161, 1-(4-(6-chloro-2-(2-(diethyl-amino)ethylamino)-8-fluoro-7-(5-methyl-1H-indazol-4-yl)quinazolin-4-yl)piperazin-1-yl) prop-2-en-1-one] | +++ (+++ indicates binding activity greater than 90%) | 
C=CC(=O)N1CCN(c2ncnc3c(F)c(-c4c(O)cccc4F)c(Cl)cc23)CC1C(F)F (stereo not drawn) [III-19, 1-(4-(6-chloro-8-fluoro-7-(2-fluoro-6-hydroxy-phenyl)quinazolin-4-yl)-2-(difluoro-methyl)piperazin-1-yl)prop-2-en-1-one] |  | Binding % (compounds of structure (III)): +++ (+++ indicates binding activity greater than 90%)
